# Experimental data as given in patent US20060167005A1, “New therapeutic uses of (4-(2-fluorophenyl)-6-methyl-2-(1-piperazinyl) thieno [2,3-d] pyrimidine” (priority 2002, published 2006).
# Legend:
# ferret = assay: Cisplatin-induced emesis in the ferret; format: in vivo; conditions: 30 mg/kg orally 1 hour prior to cisplatin, vs control animals
# Text: The effects of MCI-225 are studied against cisplatin-induced emesis in the ferret (see Florczyk et al, 1982, Cancer Treat. Rep. 66(1):187-189). […] Efficacy against cisplatin predicts efficacy against radiation-induced nausea/vomiting.
# rats [1] = assay: Nicotine withdrawal model using the acoustic startle reflex in rats; format: in vivo, rat; conditions: for example 30 mg/kg/day following nicotine withdrawal (nicotine 6 mg/kg/day s.c. for 12 days)
# Method: The effects of MCI-225 are investigated in a model of nicotine withdrawal using the acoustic startle reflex in rats (see e.g. Helton et al, 1997, Neuropharmacology 36 (11-12):1511-1516). Nicotine (6 mg/kg/day) is administered for 12 days subcutaneously by osmotic minipumps. After 12 days, the pumps are removed and the animals allowed to go through spontaneous withdrawal. Cessation of chronic nicotine exposure leads to increased startle responses (sensorimotor reactivity) for 4 days following withdrawal.
# [2] = tested on: adult female obese Zucker rats; assay: Obesity and weight gain in obese Zucker rats over 32 days; format: in vivo, rat; conditions: 30 mg/kg orally once daily, vs vehicle group
# Method: MCI-225 is evaluated in adult female obese Zucker rats over a period of 32 days. A control group of 6 animals is dosed daily with vehicle alone whilst a second group of 6 weight-matched animals receives MCI-225 at 30 mg/kg given orally once daily. Food is available ad libitum, except on days 0, 7, 14, 21, 28 and 32 when food was removed from the animals at 7.30 am and animals weighed within 2 hours following removal of food. Food is supplied after weights of animals are measured.
# alcohol-preferring rats = assay: Alcohol intake in alcohol-preferring rats; format: in vivo, rat; conditions: 30 mg/kg/day orally over 4 consecutive days, vs vehicle
# Method: The effects of MCI-225 are determined in alcohol-preferring rats. Because of their pattern of drinking, these animals seem to represent a valid model of the human condition of alcoholism (McBride et al, 1990, Alcohol 7:199-205, Lankford et al, 1991, Pharmacol. Biochem. Behav., 8:293-299). After maximally preferred alcohol concentrations had stabilised for 4 days, MCI-225 at 30 mg/kg/day orally or vehicle was administered over 4 consecutive days.
# rats [3] = assay: Transient middle cerebral artery occlusion model in rats; format: in vivo, rat; conditions: 30 mg/kg, for example 2 hours after onset of occlusion, vs vehicle-treated animals
# Text: The effects of MCI-225 are studied in a transient middle cerebral artery occlusion model in rats (see Chen et al, 1999, J. Neurol. Sci. 171(1):24-30). In particular, effects on an array of functional measures are studied, including rotarod, adhesive-backed somatosensory and neurological scores.
structure (smiles),measurement,setting,value
Cc1cc2c(-c3ccccc3F)nc(N3CCNCC3)nc2s1.Cl.O [MCI-225],emetic response,ferret,reduction in the emetic response
same,enhanced auditory startle response following withdrawal of nicotine,rats [1],attenuation of the enhanced auditory startle response
same,body weights,[2],lower body weights
same,intake of alcohol in terms of absolute g/kg and/or proportion of alcohol to total fluid intake,alcohol-preferring rats,reduction in intake of alcohol
same,"functional scores (rotarod, adhesive-backed somatosensory, neurological) following ischaemia",rats [3],improvement in one or more of the functional scores
